Data set [1] is described as follows: In vivo plasma/brain tissue distribution study in male SD rats. The following applies: oral 10 mpk. An excerpt: Experimental purpose: Male SD rats were used as test animals to determine plasma concentrations of compounds and drug concentrations of brain tissue and cerebrospinal fluid after a single administration, and to evaluate the brain entry of the compound of the present disclosure.
Experimental operation: 12 healthy adult male SD rats were selected. The compound to be tested was mixed with an appropriate amount of solvent (DMSO/solvent/water (10:10:80 v/v/v)) for the oral administration group. The mixture was vortexed and sonicated to prepare a 1.0 mg/mL clear solution for further use. After oral administration of 10 mg/kg to rats, whole blood, brain tissue, and cerebrospinal fluid for a certain period of time were collected to prepare plasma, brain homogenate, and cerebrospinal fluid. The drug concentration was analyzed by LC-MS/MS method, and the pharmacokinetic parameters were calculated by Phoenix WinNonlin software (Pharsight, USA).

Data set [2] can be described thus: Rat plasma-protein binding. The data set is classed as in vitro ADME.
The next data set has as its target T1, PI3K γ (Homo sapiens, UniProt P48736).
T1 construct: purchased Millipore 14-558-K
Briefly: Enzyme activity test in vitro (ADP-Glo lipid kinase), PI3K γ. The data set is classed as biochemical. The following applies: ATP 25 μM, 120 min. How it is done: (§1) The lipid kinase reaction was carried out under the conditions of the appropriate substrate and ATP. Then the kinase activity was tested with the ADP-Glo™ kit in two steps. Step 1: The kinase reaction was terminated, in which residual ATP was completely removed, and only ADP was remained; Step 2: Kinase test reagent was added to convert ADP into ATP, accompanied by luciferin/luciferase reaction. Finally, the […] numerical output value was converted into kinase activity.
(§2) b) Kit: ADP-Glo™ Lipid Kinase and PIP2: 3PS Kit (Promega #V1792)
(§3) b) Final test system conditions: 1× reaction system: 50 mM HEPES, 50 mM NaCl, 3 mM MgCl2, 0.01% BSA (freshly prepared on the day of the experiment), 1% DMSO (v/v) +/−compound
(§4) c) Reaction system: 3 μL mixture of enzyme and substrate (1:1)+2 μL ATP/MgCl2 mixture +5 μL ADP-Glo reagent+10 μL assay reagent.
(§5) a) Compound dilution: 50 nL of 100× compound/DMSO was transferred to the test well plate with Echo
(§6) For PI3K β/PI3K δ/PI3K γ, the compounds were diluted three-fold from the highest concentration of 1.11 mM for a total of 10 concentrations.
(§7) (1) The compound to be tested was prepared. 50 nL of […] compound solution or DMSO was added to the corresponding well plate. […]
(§8) (16) Fluorescence values were measured on an Envision instrument.
For orientation: ADP-Glo turns the ADP formed in a reaction into a luminescent signal.

The target of another data set is T2, PI3K δ (Homo sapiens, UniProt O00329).
T2 construct: purchased Millipore 14-604-K
Briefly: Enzyme activity test in vitro (ADP-Glo lipid kinase), PI3K δ. It is filed as biochemical. Particulars: ATP 40 μM, 120 min. As to the method:
as §1, §2, §3, §4, §5, §6, §7, §8

Another data set has as its target T3, PI3K β (Homo sapiens, UniProt P42338).
T3 construct: purchased Promega V1751
The data set is described as follows: Enzyme activity test in vitro (ADP-Glo lipid kinase), PI3K β. It is filed as biochemical. The following applies: ATP 40 μM, 120 min. How it is done:
as §1, §2, §3, §4, §5, §6, §7, §8

A short description of data set [3]: In vivo DMPK study in male CD-1 mice. An excerpt: Experimental purpose: Male CD-1 mice were used as test animals to determine plasma concentrations of compounds after a single administration and evaluate pharmacokinetic behavior.
Experimental operation: 8 healthy adult male CD-1 mice were selected, 4 for the intravenous injection group and 4 for the oral administration group. The compound to be tested was mixed with an appropriate amount of the solvent (DMSO/solvent/water (10:10:80 v/v/v)) for the intravenous injection group. The mixture solution was vortexed and sonicated to prepare a 1.0 mg/mL clear solution, which was filtered through a microporous membrane for further use. For the oral administration group, the solvent was DMSO/solvent/water (10:10:80 v/v/v). After the compound to be tested was mixed with the solvent, the mixture solution was vortexed and sonicated to prepare a 1.0 mg/mL homogeneous suspension for further use. After 1 mg/kg intravenous administration or 3 mg/kg oral administration in mice, whole blood was collected for a certain period of time to prepare plasma, and the drug concentration was analyzed by LC-MS/MS method, then the pharmacokinetic parameters were calculated using Phoenix WinNonlin software (Pharsight, USA).

Another data set has as its target T4, PI3K α (Homo sapiens, UniProt P42336).
T4 construct: purchased Millipore 14-602-K
The data set is described as follows: Enzyme activity test in vitro (ADP-Glo lipid kinase), PI3K α. It is filed as biochemical. Particulars: ATP 40 μM, 120 min. How it is done:
as §1, §2, §3, §4, §5
For PI3K α, the compounds were diluted three-fold from the highest concentration of 0.111 mM for a total of 10 concentrations.
as §7, §8

Data set [4] has as its system HCC1954 cells with PIK3CA mutation. Briefly: Cell activity test in vitro, anti-proliferation by CTG method, HCC1954. The data set is classed as cell-based. The following applies: 72 hours.
Description: By CTG method, the effect of the compound to be tested on the anti-proliferation activity of cells was determined in two cell lines, HCC1954 and HDQ-P1.
(1) HCC1954 and HDQ-P1 cells (ATCC® HTB-22™) were inoculated into 96-well plates, respectively, with 100 μL of cell complete medium per well (4000 cells/HDQ-P1 per well, 3500 cells/HCC1954 per well). Cells were cultured at 37° C., 5% CO2 for 24 hours.
(2) The cell complete medium was replaced by 100 μL of serum-free medium. The cells were starved overnight.
(3) Compounds were prepared (the starting concentration of the compound was 10 μM, and diluted 3-fold for 8 concentrations. Each concentration of the compound was then diluted 100-fold with serum-free medium), and 25 μL of the diluted compound was added to the plate containing the cells.
(4) The well plate was incubated at 37° C., 5% CO2 for 72 hours (HCC1954) or 120 hours (HDQ-P1).
(5) Subsequent operations were performed according to the instructions of the Promega CTG kit.
The test system of a further data set is MDR1. The data set is described as follows: MDCK-MDR1 permeability test. It is filed as in vitro ADME. The following applies: dog, pH 7.4, 2.5 hours.

Read-outs that look alike come from different tables or passages of the source.

In general, Tmax refers to the time at which the peak concentration occurs. Usually AUC stands for the area under the concentration-time curve, a measure of exposure. One may read the Cmax as the highest concentration seen after dosing. As a reminder, the fraction unbound is free concentration divided by total concentration. The low end stands for little free substance, the high end for much free substance. As usually defined, the IC50 is the concentration needed to halve the response being measured. High values mean lower potency, low ones higher potency. One may read the Vd as a proportionality between amount in the body and measured concentration, not a real space. As usually defined, the Papp A→B is how fast a substance crosses the layer from the apical side. Read a low Papp A→B as poor permeation. By Papp B→A is commonly meant how fast a substance crosses the layer from the basolateral side.

T3 sequence (P42338 whole entry): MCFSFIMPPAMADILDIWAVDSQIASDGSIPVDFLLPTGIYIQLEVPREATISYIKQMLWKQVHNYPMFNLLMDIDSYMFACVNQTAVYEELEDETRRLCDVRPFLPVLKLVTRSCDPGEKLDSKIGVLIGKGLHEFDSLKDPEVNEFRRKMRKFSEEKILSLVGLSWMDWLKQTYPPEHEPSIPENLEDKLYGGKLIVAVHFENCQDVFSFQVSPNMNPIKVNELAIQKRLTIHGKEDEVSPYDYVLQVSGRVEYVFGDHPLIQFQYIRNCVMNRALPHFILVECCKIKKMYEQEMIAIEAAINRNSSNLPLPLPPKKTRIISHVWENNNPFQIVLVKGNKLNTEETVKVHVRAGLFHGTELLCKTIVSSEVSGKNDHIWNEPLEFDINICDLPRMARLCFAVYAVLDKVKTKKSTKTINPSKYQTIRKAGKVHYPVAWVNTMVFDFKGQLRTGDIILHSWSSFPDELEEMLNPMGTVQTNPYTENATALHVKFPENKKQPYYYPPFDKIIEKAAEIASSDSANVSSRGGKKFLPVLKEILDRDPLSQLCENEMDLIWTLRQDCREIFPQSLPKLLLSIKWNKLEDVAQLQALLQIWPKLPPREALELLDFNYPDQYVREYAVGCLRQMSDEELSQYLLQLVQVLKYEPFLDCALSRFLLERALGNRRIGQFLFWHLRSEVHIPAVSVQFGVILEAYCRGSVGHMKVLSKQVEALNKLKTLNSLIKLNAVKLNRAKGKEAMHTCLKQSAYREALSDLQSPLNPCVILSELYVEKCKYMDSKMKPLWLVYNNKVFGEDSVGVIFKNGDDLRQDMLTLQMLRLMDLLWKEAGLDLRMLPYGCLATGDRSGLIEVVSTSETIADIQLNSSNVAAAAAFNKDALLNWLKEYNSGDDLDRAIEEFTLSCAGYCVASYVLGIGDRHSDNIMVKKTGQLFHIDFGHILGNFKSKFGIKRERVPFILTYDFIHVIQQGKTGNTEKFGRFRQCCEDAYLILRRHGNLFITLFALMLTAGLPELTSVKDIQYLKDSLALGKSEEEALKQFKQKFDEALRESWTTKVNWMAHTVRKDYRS
T3 sequence (P27986 whole entry partner): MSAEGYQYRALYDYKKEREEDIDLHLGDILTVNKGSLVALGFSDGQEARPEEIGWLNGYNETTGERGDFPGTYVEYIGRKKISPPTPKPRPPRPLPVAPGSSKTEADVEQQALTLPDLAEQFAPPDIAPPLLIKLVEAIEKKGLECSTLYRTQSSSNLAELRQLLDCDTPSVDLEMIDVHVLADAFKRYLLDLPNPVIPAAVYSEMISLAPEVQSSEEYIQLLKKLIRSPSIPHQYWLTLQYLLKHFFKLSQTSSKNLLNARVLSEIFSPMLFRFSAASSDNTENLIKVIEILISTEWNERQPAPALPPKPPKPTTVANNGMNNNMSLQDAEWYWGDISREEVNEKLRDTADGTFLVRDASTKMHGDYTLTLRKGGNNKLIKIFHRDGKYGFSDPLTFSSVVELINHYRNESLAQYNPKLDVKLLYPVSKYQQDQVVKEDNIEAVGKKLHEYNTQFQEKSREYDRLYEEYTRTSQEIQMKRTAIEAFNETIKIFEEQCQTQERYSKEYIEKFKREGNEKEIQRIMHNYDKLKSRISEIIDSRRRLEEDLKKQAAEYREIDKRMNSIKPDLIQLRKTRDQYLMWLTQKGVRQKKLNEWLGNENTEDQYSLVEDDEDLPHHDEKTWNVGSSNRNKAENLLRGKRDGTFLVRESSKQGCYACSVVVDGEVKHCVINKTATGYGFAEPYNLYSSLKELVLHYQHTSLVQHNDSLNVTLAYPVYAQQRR
T1 sequence (P48736 whole entry): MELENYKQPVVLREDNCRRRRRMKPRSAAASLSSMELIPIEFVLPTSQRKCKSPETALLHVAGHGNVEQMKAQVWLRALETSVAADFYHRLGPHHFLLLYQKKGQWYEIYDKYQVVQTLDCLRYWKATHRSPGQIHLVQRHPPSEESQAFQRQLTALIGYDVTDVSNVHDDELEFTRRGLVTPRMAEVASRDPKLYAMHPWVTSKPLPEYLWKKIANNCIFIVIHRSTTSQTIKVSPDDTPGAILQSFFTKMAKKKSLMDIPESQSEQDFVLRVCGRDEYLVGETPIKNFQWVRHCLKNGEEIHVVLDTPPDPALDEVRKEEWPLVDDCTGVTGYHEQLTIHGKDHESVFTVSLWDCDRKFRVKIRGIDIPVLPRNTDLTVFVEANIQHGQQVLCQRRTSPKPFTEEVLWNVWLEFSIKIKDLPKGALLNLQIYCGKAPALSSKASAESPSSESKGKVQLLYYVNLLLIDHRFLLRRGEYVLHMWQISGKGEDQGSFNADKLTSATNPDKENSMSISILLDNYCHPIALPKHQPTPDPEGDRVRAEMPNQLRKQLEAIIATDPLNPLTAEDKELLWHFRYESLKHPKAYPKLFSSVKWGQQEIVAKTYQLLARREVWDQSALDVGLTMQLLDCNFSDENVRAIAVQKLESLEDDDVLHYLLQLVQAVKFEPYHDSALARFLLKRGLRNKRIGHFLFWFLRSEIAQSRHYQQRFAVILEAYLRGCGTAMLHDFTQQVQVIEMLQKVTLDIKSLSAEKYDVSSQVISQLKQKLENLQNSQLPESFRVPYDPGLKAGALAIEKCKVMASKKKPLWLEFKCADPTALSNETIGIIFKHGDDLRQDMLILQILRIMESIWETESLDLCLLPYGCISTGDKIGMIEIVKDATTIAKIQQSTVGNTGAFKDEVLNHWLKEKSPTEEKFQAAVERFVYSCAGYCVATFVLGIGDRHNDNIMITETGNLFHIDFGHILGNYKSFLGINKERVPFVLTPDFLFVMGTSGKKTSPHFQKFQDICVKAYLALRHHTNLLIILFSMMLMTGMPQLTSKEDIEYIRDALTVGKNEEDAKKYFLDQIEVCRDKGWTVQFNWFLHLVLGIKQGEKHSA
T2 sequence (O00329 whole entry): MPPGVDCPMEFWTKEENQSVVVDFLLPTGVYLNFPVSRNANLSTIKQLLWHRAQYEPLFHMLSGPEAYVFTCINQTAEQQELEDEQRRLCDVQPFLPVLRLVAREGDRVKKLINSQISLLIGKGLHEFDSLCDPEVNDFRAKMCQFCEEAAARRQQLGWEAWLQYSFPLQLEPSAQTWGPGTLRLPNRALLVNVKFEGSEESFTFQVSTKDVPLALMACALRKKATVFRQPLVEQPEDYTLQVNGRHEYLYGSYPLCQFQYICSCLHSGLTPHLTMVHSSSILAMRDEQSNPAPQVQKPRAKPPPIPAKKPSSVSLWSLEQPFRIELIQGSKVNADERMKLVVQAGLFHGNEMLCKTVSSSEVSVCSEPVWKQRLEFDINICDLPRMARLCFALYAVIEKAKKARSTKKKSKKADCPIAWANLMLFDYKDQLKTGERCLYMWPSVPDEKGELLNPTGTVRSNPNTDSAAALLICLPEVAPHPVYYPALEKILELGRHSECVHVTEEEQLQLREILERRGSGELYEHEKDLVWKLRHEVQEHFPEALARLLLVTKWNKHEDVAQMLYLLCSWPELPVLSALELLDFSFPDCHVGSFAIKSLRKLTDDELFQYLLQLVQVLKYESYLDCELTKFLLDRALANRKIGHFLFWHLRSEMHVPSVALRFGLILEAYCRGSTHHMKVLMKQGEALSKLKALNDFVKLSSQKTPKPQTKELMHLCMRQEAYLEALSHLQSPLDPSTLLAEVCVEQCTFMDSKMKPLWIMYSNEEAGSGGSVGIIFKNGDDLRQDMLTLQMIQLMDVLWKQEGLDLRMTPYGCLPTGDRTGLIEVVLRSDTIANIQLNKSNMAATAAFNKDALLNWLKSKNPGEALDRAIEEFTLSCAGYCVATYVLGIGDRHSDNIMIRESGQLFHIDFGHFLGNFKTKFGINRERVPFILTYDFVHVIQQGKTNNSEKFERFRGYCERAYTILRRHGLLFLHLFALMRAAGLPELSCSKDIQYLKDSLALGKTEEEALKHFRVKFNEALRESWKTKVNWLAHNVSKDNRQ
T2 sequence (P27986 whole entry partner): as the sequence (P27986 whole entry partner) above
T4 sequence (P42336 whole entry): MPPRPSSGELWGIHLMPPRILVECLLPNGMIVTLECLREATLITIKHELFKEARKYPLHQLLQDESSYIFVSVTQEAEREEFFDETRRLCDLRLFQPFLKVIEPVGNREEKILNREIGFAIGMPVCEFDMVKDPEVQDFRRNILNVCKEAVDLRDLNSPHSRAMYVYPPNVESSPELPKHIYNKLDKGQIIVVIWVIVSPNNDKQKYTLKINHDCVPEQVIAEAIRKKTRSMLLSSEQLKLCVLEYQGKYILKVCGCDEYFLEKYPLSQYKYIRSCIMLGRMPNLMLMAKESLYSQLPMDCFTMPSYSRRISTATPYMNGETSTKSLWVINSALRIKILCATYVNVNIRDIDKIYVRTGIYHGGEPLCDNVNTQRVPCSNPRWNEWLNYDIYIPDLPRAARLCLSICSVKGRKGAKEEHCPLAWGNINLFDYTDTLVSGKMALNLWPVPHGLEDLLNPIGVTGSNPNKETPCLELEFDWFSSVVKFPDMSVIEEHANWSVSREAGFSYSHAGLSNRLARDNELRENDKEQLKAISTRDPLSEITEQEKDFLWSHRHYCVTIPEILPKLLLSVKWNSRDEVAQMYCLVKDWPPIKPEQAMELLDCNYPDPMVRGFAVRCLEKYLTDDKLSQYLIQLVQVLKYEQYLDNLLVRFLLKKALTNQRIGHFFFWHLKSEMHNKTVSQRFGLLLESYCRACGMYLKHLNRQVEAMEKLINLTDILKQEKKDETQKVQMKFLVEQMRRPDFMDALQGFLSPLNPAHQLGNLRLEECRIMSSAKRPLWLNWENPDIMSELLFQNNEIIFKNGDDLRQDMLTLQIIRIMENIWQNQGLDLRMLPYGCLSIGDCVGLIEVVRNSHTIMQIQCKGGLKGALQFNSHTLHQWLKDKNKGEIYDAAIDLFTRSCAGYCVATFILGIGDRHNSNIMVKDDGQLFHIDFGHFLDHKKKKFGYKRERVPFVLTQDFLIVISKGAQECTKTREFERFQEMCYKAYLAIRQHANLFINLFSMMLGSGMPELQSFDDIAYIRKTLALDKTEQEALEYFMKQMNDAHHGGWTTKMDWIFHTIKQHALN
T4 sequence (P27986 whole entry partner): as the sequence (P27986 whole entry partner) above
Description for MDR1: Compounds in DMSO stock solution were diluted to 2 μM (DMSO<1%) with a transport buffer (HBSS with 10 mM Hepes, pH 7.4) and applied to the apical side or the basolateral side of the cell monolayer. Permeation of compounds from the A to B direction or from the B to A direction was determined in duplicate. The plate was incubated for 2.5 hours in a CO2 incubator at a temperature of 37+1° C. in a saturated humidity containing 5% CO2 without shaking. In addition, the efflux rate of each compound was also determined. Compounds were quantified by LC-MS/MS analysis based on the peak area ratio of analyte/IS.
After the transport assay, cell monolayer integrity was determined using the fluorescein exclusion test. The buffer was removed from the apical and basolateral chambers. Then 75 μL of 100 μM fluorescein transport buffer and 250 μL of transport buffer were added to the apical and basolateral chambers, respectively. The plate was incubated at 37° C., 5% CO2 and saturated humidity for 30 min without shaking. After 30 min of incubation, 20 μL of fluorescein sample was collected from the apical side, and 60 μL of transport buffer was added. An 80 μL of fluorescein sample was then collected from the basolateral side. Relative fluorescence units (RFU) of fluorescein were measured at 425/528 nm (excitation/emission) with an Envision microplate reader.

On to `C[C@H](Nc1ccc2c(c1)OCCn1cc(N3C(=O)OC[C@H]3C(F)F)nc1-2)C(N)=O` [GDC-0077], for which the Tmax is 1 h in data set [1] (male, SD, rat, 10 mg/kg, brain tissue, read-out: Tmax, Brain tissue); 1 h in data set [1] (male, SD, rat, 10 mg/kg, cerebrospinal fluid, read-out: Tmax, Cerebrospinal fluid); 0.25 h in [1] (male, SD, rat, 10 mg/kg, plasma, read-out: Tmax, Plasma). The AUC in data set [1] (male, SD, rat, 10 mg/kg, cerebrospinal fluid, read-out: AUC, Cerebrospinal fluid) was 0.128 µM·h; in data set [1] (male, SD, rat, 10 mg/kg, plasma, read-out: AUC, Plasma), 3.12 µM·h. The Cmax in data set [1] (male, SD, rat, 10 mg/kg, cerebrospinal fluid, read-out: Cmax, Cerebrospinal fluid) amounted to 60.4 nM; in data set [1] (male, SD, rat, 10 mg/kg, plasma, read-out: Cmax, Plasma), 1520 nM; in [3] (male, CD-1, mouse, plasma, 3 mg/kg oral administration) it was 1760 nM. Besides, the half-life in data set [1] (male, SD, rat, 10 mg/kg, plasma, read-out: T1/2, Plasma (converted)) was 1.32 h; in [3] (male, CD-1, mouse, plasma, 1 mg/kg intravenous, read-out: Intravenous injection T1/2 (converted)) it was 1.2 h. In data set [1] (brain tissue), the “AUC, Brain tissue” value is given as “ND, 342 nM * h”. Also, the “Cmax, Brain tissue” value in data set [1] (brain tissue) is 147 nM. This compound gave a fraction unbound in data set [2] of 0.515. For the same compound, the IC50 on PI3K γ amounted to 72 nM; at PI3K δ it was 133 nM; against PI3K β, 852 nM; at PI3K α it was 0.75 nM; in data set [4] it was 101 nM. Further, the “Oral DNAUC” value in [3] (3 mg/kg oral administration) was found to be 778 nM · h/mpk. Besides, in data set [3] (male, CD-1, mouse, plasma, 1 mg/kg intravenous, read-out: Intravenous injection Cl), the clearance came out at 26.1 mL/min/kg. Besides, the volume of distribution (Vd) in data set [3] (male, CD-1, mouse, plasma, 1 mg/kg intravenous, read-out: Intravenous injection Vd) came to 1.09 L/kg. In addition, in data set [3] (male, CD-1, mouse, plasma, 3 mg/kg oral vs 1 mg/kg intravenous, read-out: Oral F %), the bioavailability was 50%. Also, in the data set with MDR1, the apical-to-basolateral permeability (Papp A→B) at 2.5 h, 2 μM came to 1.99 ×10⁻⁶ cm/s. The compound also displayed a basolateral-to-apical permeability (Papp B→A) at 2.5 h, 2 μM in the data set with MDR1 of 16 ×10⁻⁶ cm/s.

The record behind these values is patent publication US20240390388A1, “TRICYCLIC COMPOUNDS AND USE THEREOF” (MEDSHINE DISCOVERY INC., priority 2021, published 2024).
